Reference: ChEMBL document CHEMBL1201862, “PubChem BioAssay data set” (2004)
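Each compound was tested at five concentrations against cells in 96-well plates for 48 hours. Abbreviation: GI50, concentration required for 50% inhibition of growth.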 Activity calls are given as the source filed them. Rule as the data show it: active = GI50 up to about 1.1 µM and inactive = higher.

Columns and labels:
Assay in all cases: NCI-60 cell line screen, 48 h
MDA-MB-231 = system: MDA-MB-231
HOP-62 = system: HOP-62
MCF7 = system: MCF7
M14 = system: M14
UACC-62 = system: UACC-62
OVCAR-4 = system: OVCAR-4
SF-539 = system: SF-539
786-0 = system: 786-0
RPMI-8226 = system: RPMI-8226
LOX IMVI = system: LOX IMVI
K562 = system: K562
HOP-92 = system: HOP-92
Malme-3M = system: Malme-3M
DU-145 = system: DU-145
A549 = system: A549
HL-60 = system: HL-60
SW-620 = system: SW-620
ACHN = system: ACHN
T47D = system: T47D
KM12 = system: KM12

SMILES: Cc1nc2ccccc2n1Cc1ccc(NC(=S)NC2CCCCC2)cc1
- GI50 (MDA-MB-231): 38.1 µM (inactive)
- GI50 (HOP-62): > 75 µM (inactive)
- GI50 (MCF7): 4.86 µM (inactive)
- GI50 (M14): 30.1 µM (inactive)
- GI50 (UACC-62): 6.3 µM (inactive)
- GI50 (OVCAR-4): 10.1 µM (inactive)
- GI50 (SF-539): > 72.3 µM (inactive)
- GI50 (786-0): 36.9 µM (inactive)
- GI50 (RPMI-8226): 13.4 µM (inactive)
- GI50 (LOX IMVI): 10.6 µM (inactive)
- GI50 (K562): 14.7 µM (inactive)
- GI50 (HOP-92): 41.3 µM (inactive)
- GI50 (Malme-3M): 21.7 µM (inactive)
- GI50 (DU-145): 36.8 µM (inactive)
- GI50 (A549): 17.4 µM (inactive)
- GI50 (HL-60): 25.6 µM (inactive)
- GI50 (SW-620): 41.3 µM (inactive)
- GI50 (ACHN): 4.49 µM (inactive)
- GI50 (T47D): 5.74 µM (inactive)
- GI50 (KM12): 24.3 µM (inactive)

SMILES: O=c1c2cccnc2[nH]c2ccc3[nH]ncc3c12
- GI50 (MDA-MB-231): > 10 µM (inactive)
- GI50 (HOP-62): > 10 µM (inactive)
- GI50 (MCF7): > 10 µM (inactive)
- GI50 (M14): > 10 µM (inactive)
- GI50 (UACC-62): > 10 µM (inactive)
- GI50 (OVCAR-4): > 10 µM (inactive)
- GI50 (SF-539): > 10 µM (inactive)
- GI50 (786-0): > 10 µM (inactive)
- GI50 (RPMI-8226): > 10 µM (inactive)
- GI50 (LOX IMVI): 2.91 µM (inactive)
- GI50 (K562): > 10 µM (inactive)
- GI50 (HOP-92): > 10 µM (inactive)
- GI50 (Malme-3M): > 10 µM (inactive)
- GI50 (DU-145): > 10 µM (inactive)
- GI50 (A549): > 10 µM (inactive)
- GI50 (HL-60): > 10 µM (inactive)
- GI50 (SW-620): > 10 µM (inactive)
- GI50 (ACHN): 5.13 µM (inactive)
- GI50 (T47D): > 10 µM (inactive)
- GI50 (KM12): 5.45 µM (inactive)

SMILES: O=C1c2c(O)cccc2C(C(=O)CCCC(=O)C2c3cccc(O)c3C(=O)c3c(O)cccc32)c2cccc(O)c21
- GI50 (MDA-MB-231): 0.0822 µM (active)
- GI50 (HOP-62): 0.612 µM (active)
- GI50 (MCF7): 0.598 µM (active)
- GI50 (M14): 0.368 µM (active)
- GI50 (UACC-62): 0.327 µM (active)
- GI50 (OVCAR-4): 0.0867 µM (active)
- GI50 (SF-539): 0.179 µM (active)
- GI50 (786-0): 2.73 µM (inactive)
- GI50 (RPMI-8226): 0.0679 µM (active)
- GI50 (LOX IMVI): 0.194 µM (active)
- GI50 (K562): 0.11 µM (active)
- GI50 (HOP-92): 0.217 µM (active)
- GI50 (Malme-3M): 0.789 µM (active)
- GI50 (DU-145): 0.519 µM (active)
- GI50 (A549): 0.393 µM (active)
- GI50 (HL-60): 0.0824 µM (active)
- GI50 (SW-620): 0.244 µM (active)
- GI50 (ACHN): 0.378 µM (active)
- GI50 (T47D): 0.279 µM (active)
- GI50 (KM12): 0.242 µM (active)

SMILES: O=C1C=CC=C/C1=C1\N=C(c2ccccc2OCC(=O)c2ccc(Br)cc2)SS1
- GI50 (MDA-MB-231): > 10 µM (inactive)
- GI50 (HOP-62): 4.08 µM (inactive)
- GI50 (MCF7): > 100 µM (inactive)
- GI50 (M14): 73.3 µM (inactive)
- GI50 (UACC-62): 23.1 µM (inactive)
- GI50 (OVCAR-4): 40.1 µM (inactive)
- GI50 (SF-539): 24.4 µM (inactive)
- GI50 (786-0): 31.5 µM (inactive)
- GI50 (RPMI-8226): > 100 µM (inactive)
- GI50 (LOX IMVI): > 100 µM (inactive)
- GI50 (K562): > 100 µM (inactive)
- GI50 (HOP-92): 63.8 µM (inactive)
- GI50 (Malme-3M): > 100 µM (inactive)
- GI50 (DU-145): > 100 µM (inactive)
- GI50 (A549): > 100 µM (inactive)
- GI50 (HL-60): > 100 µM (inactive)
- GI50 (SW-620): > 100 µM (inactive)
- GI50 (ACHN): 62.7 µM (inactive)
- GI50 (T47D): > 100 µM (inactive)
- GI50 (KM12): > 100 µM (inactive)

SMILES: NC(CSC1c2ccccc2-c2ccccc21)C(=O)O (stereo not given)
- GI50 (MDA-MB-231): > 100 µM (inactive)
- GI50 (HOP-62): > 100 µM (inactive)
- GI50 (MCF7): > 100 µM (inactive)
- GI50 (M14): > 100 µM (inactive)
- GI50 (UACC-62): > 100 µM (inactive)
- GI50 (OVCAR-4): > 100 µM (inactive)
- GI50 (SF-539): > 100 µM (inactive)
- GI50 (786-0): > 100 µM (inactive)
- GI50 (RPMI-8226): > 100 µM (inactive)
- GI50 (LOX IMVI): > 100 µM (inactive)
- GI50 (K562): > 100 µM (inactive)
- GI50 (HOP-92): > 100 µM (inactive)
- GI50 (Malme-3M): > 100 µM (inactive)
- GI50 (DU-145): > 100 µM (inactive)
- GI50 (A549): > 100 µM (inactive)
- GI50 (HL-60): > 100 µM (inactive)
- GI50 (SW-620): > 100 µM (inactive)
- GI50 (ACHN): > 100 µM (inactive)
- GI50 (T47D): > 100 µM (inactive)
- GI50 (KM12): > 100 µM (inactive)

SMILES: Cc1c(CCCl)c(=O)n2c([nH]c3ccccc32)c1C#N
- GI50 (MDA-MB-231): 1.52 µM (inactive)
- GI50 (HOP-62): 1.82 µM (inactive)
- GI50 (MCF7): 1.61 µM (inactive)
- GI50 (M14): 1.6 µM (inactive)
- GI50 (UACC-62): 1.34 µM (inactive)
- GI50 (OVCAR-4): 1.77 µM (inactive)
- GI50 (SF-539): 1.48 µM (inactive)
- GI50 (786-0): 1.51 µM (inactive)
- GI50 (RPMI-8226): 1.3 µM (inactive)
- GI50 (LOX IMVI): 0.619 µM (active)
- GI50 (K562): 1.34 µM (inactive)
- GI50 (HOP-92): 1.5 µM (inactive)
- GI50 (Malme-3M): 0.678 µM (active)
- GI50 (DU-145): 2.21 µM (inactive)
- GI50 (A549): 1.78 µM (inactive)
- GI50 (HL-60): 1.55 µM (inactive)
- GI50 (SW-620): 0.973 µM (active)
- GI50 (ACHN): 1.43 µM (inactive)
- GI50 (T47D): 1.51 µM (inactive)
- GI50 (KM12): 1.75 µM (inactive)

SMILES: COC(=O)C(COC(=O)/C=C/c1ccc(OC(C)=O)c(OC(C)=O)c1)NC(=O)/C=C/c1ccc(OC(C)=O)c(OC(C)=O)c1 (stereo not given)
- GI50 (MDA-MB-231): 14.9 µM (inactive)
- GI50 (HOP-62): 23 µM (inactive)
- GI50 (MCF7): 28.3 µM (inactive)
- GI50 (M14): 17.6 µM (inactive)
- GI50 (UACC-62): 15 µM (inactive)
- GI50 (OVCAR-4): 20.7 µM (inactive)
- GI50 (SF-539): 31.8 µM (inactive)
- GI50 (786-0): 17.9 µM (inactive)
- GI50 (RPMI-8226): 19.6 µM (inactive)
- GI50 (LOX IMVI): 16.3 µM (inactive)
- GI50 (K562): > 100 µM (inactive)
- GI50 (HOP-92): 32.7 µM (inactive)
- GI50 (Malme-3M): 11.3 µM (inactive)
- GI50 (DU-145): 20.8 µM (inactive)
- GI50 (A549): 40.9 µM (inactive)
- GI50 (HL-60): 25.2 µM (inactive)
- GI50 (SW-620): 33.4 µM (inactive)
- GI50 (ACHN): 25.6 µM (inactive)
- GI50 (T47D): 16.6 µM (inactive)
- GI50 (KM12): 17.6 µM (inactive)

SMILES: C=CC(=O)N1C/C(=C\c2ccc(F)cc2)C(=O)/C(=C/c2ccc(F)cc2)C1
- GI50 (MDA-MB-231): 0.461 µM (active)
- GI50 (HOP-62): 0.516 µM (active)
- GI50 (MCF7): 0.168 µM (active)
- GI50 (M14): 0.328 µM (active)
- GI50 (UACC-62): 0.142 µM (active)
- GI50 (OVCAR-4): 0.339 µM (active)
- GI50 (SF-539): 0.214 µM (active)
- GI50 (786-0): 0.222 µM (active)
- GI50 (RPMI-8226): 0.0318 µM (active)
- GI50 (LOX IMVI): 0.0925 µM (active)
- GI50 (K562): 0.185 µM (active)
- GI50 (HOP-92): 3.03 µM (inactive)
- GI50 (Malme-3M): 0.735 µM (active)
- GI50 (DU-145): 1.67 µM (inactive)
- GI50 (A549): 0.979 µM (active)
- GI50 (HL-60): 0.728 µM (active)
- GI50 (SW-620): 0.162 µM (active)
- GI50 (ACHN): 0.259 µM (active)
- GI50 (T47D): 4.57 µM (inactive)
- GI50 (KM12): 0.193 µM (active)

SMILES: NC1=NCCN1CC(=O)O [CYCLOCREATINE]
- GI50 (MDA-MB-231): > 1000 µM (inactive)
- GI50 (HOP-62): > 1000 µM (inactive)
- GI50 (MCF7): > 1000 µM (inactive)
- GI50 (M14): > 1000 µM (inactive)
- GI50 (UACC-62): > 1000 µM (inactive)
- GI50 (OVCAR-4): > 1000 µM (inactive)
- GI50 (SF-539): > 1000 µM (inactive)
- GI50 (786-0): > 1000 µM (inactive)
- GI50 (RPMI-8226): > 1000 µM (inactive)
- GI50 (LOX IMVI): > 1000 µM (inactive)
- GI50 (K562): > 1000 µM (inactive)
- GI50 (HOP-92): > 1000 µM (inactive)
- GI50 (Malme-3M): > 1000 µM (inactive)
- GI50 (DU-145): > 1000 µM (inactive)
- GI50 (A549): > 1000 µM (inactive)
- GI50 (HL-60): > 1000 µM (inactive)
- GI50 (SW-620): > 1000 µM (inactive)
- GI50 (ACHN): > 1000 µM (inactive)
- GI50 (T47D): > 1000 µM (inactive)
- GI50 (KM12): > 10000 µM (inactive)
